US5110911A, “Human tumor-associated Thomsen-Friedenreich antigen” (Biomira, Inc., priority 1989, dated 1992)
Blank lines part the entries; values can stand above or below the molecule they belong to.

How the values were obtained:
[1] = test system: TF Antigen Binding with MAb 49H.8 (647V Conditioned Medium); experiment: Inhibition of TF antigen binding with MAb 49H.8 by synthetic carbohydrates in SRIA, 647V conditioned medium; design: species or system human
Description: (§1) Breakable strips of microtitre wells were coated with MAb […].8 or a control antibody (MOPC-104E), 1 μg/well, by overnight incubation at 4° C. The wells were then serially incubated with FBS 5% in PBS at 37° C. for 30 minutes, with antigen solution at 37° C. for two hours, and with radioiodinated PNA (2×10^5 cpm/well) at room temperature for two hours. The wells were washed with PBS containing 0.05% Tween-20 after each of the above steps. Each well was counted for ^125 I activity using a gamma counter.

[2] = test system: TF Antigen Binding with MAb 49H.8 (LS174T Conditioned Medium); experiment: Inhibition of TF antigen binding with MAb 49H.8 by synthetic carbohydrates in SRIA, LS174T conditioned medium; design: species or system human
Description: as §1

[3] = test system: TF Antigen Binding with MAb 49H.8 (PE89); experiment: Inhibition of TF antigen binding with MAb 49H.8 by synthetic carbohydrates in SRIA, PE89; design: species or system human
Description: as §1

[4] = test system: TF Antigen Binding with MAb 49H.8 (Ta3-Ha Conditioned Medium); experiment: Inhibition of TF antigen binding with MAb 49H.8 by synthetic carbohydrates in SRIA, Ta3-Ha conditioned medium; design: species or system murine
Description: as §1

[5] = test system: antigen capture by MAb 49H.8; experiment: Inhibition of the antigen capture by synthetic carbohydrate haptens; format: binding
Description: as §1

49H.8 = conditions: inhibitor concentration of 2 mg/ml; cited from earlier work
carcinoma cell lines = conditions: all nine cell lines named; cited from earlier work

- % Inhibition ± SD, 647V Conditioned Medium ([1]; inhibitor 5 mM): 66.60%
- % Inhibition ± SD, 647V Conditioned Medium ([1]; inhibitor 10 mM): 90.12%
- % Inhibition ± SD, LS174T Conditioned Medium ([2]; inhibitor 5 mM): 86.95%
- % Inhibition ± SD, LS174T Conditioned Medium ([2]; inhibitor 10 mM): 95.91%
- % Inhibition ± SD, PE89 ([3]; inhibitor 5 mM): 45.48%
- % Inhibition ± SD, PE89 ([3]; inhibitor 10 mM): 69.04%
- % Inhibition ± SD, Ta3-Ha Conditioned Medium ([4]; inhibitor 5 mM): 69.40%
- % Inhibition ± SD, Ta3-Ha Conditioned Medium ([4]; inhibitor 10 mM): 96.25%
Molecule: OC[C@H]1O[C@@H](Oc2ccccc2)[C@H](O)[C@@H](O)[C@H]1O [Phenyl-β-D-galactoside]
- Inhibition of the positive reactivity in the sandwich assay (in words) [5]: inhibited

Molecule: OC[C@H]1OC(O)[C@H](O)[C@@H](O)[C@H]1O (stereo partly drawn) [D-Gal]
- inhibition in binding of 49H.8 to neuraminidase-treated erythrolytes (49H.8): 5%

Molecule: CC(=O)N[C@@H]1[C@@H](O[C@@H]2O[C@H](CO)[C@H](O)[C@H](O)[C@H]2O)[C@@H](O)[C@@H](CO)O[C@@H]1O [TF disaccharide, D-β-Gal (1-3)-α-GalNAc]
- inhibition in binding of 49H.8 to neuraminidase-treated erythrolytes (49H.8): 33%

Molecule: CC(=O)N[C@@H]1[C@@H](O[C@@H]2O[C@H](CO)[C@H](O)[C@H](O)[C@H]2O)[C@@H](O)[C@@H](CO)O[C@H]1O [beta anomer]
- inhibition in binding of 49H.8 to neuraminidase-treated erythrolytes (49H.8): 29%

- % Inhibition ± SD, 647V Conditioned Medium ([1]; inhibitor 5 mM): -3.00%
- % Inhibition ± SD, 647V Conditioned Medium ([1]; inhibitor 10 mM): 0.58%
- % Inhibition ± SD, LS174T Conditioned Medium ([2]; inhibitor 5 mM): -7.15%
- % Inhibition ± SD, LS174T Conditioned Medium ([2]; inhibitor 10 mM): -1.67%
- % Inhibition ± SD, PE89 ([3]; inhibitor 5 mM): -6.41%
- % Inhibition ± SD, PE89 ([3]; inhibitor 10 mM): -4.61%
- % Inhibition ± SD, Ta3-Ha Conditioned Medium ([4]; inhibitor 5 mM): 3.92%
- % Inhibition ± SD, Ta3-Ha Conditioned Medium ([4]; inhibitor 10 mM): 1.38%
Molecule: OC[C@H]1O[C@@H](Oc2ccccc2)[C@H](O)[C@@H](O)[C@@H]1O [Phenyl-β-D-glucoside]
- Inhibition of the positive reactivity in the sandwich assay (in words) [5]: did not show any inhibition

Molecule: p-nitrophenyl-α-D-galactoside [p-nitrophenyl α-D-galactoside]
- Inhibition of the positive reactivity in the sandwich assay (in words) [5]: did not show any inhibition

Molecule: O=[N+]([O-])c1ccc(O[C@@H]2O[C@H](CO)[C@H](O)[C@H](O)[C@H]2O)cc1 [p-nitrophenyl-β-D-galactoside]
- Inhibition of the positive reactivity in the sandwich assay (in words) [5]: inhibited

B1: PNA: lectin extracted from the peanut (Arachis hypogaea) which recognizes the terminal disaccharide of the TF-antigen (protein, UniProt P02872 24-273, looked up)
Galactose-binding lectin: AETVSFNFNSFSEGNPAINFQGDVTVLSNGNIQLTNLNKVNSVGRVLYAMPVRIWSSATGNVASFLTSFSFEMKDIKDYDPADGIIFFIAPEDTQIPAGSIGGGTLGVSDTKGAGHFVGVEFDTYSNSEYNDPPTDHVGIDVNSVDSVKTVPWNSVSGAVVKVTVIYDSSTKTLSVAVTNDNGDITTIAQVVDLKAKLPERVKFGFSASGSLGGRQIHLIRSWSFTSTLITTTRRSIDNNEKKIMNMASA
- Binding to carcinoma cell lines (carcinoma cell lines): marked
